Where “and” joins values, the source holds several entries; their conditions need not be identical. Identical values can stand only once. Inconclusive results and toxic doses are left out. No stated cut-off is given here; in the data, active means T/C of 150% or more; inactive means T/C below 125%.
Test system: L1210 leukemia ip in BDF1 mice, survival T/C
Experiment: NCI In Vivo Anticancer Drug Screen. Data for tumor model L1210 Leukemia (intraperitoneal) in B6D2F1 (BDF1) mice
Details: endpoint: mean survival time, higher = longer survival
Outline: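 Mice bearing the transplanted tumor received compound or vehicle. Survival of the treated group was divided by that of the vehicle-treated control group to give the ratio.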

[1] = dose: 25.0 mg/kg/injection, schedule: Q01DX009 (ip), vehicle: saline
[2] = dose: 50.0 mg/kg/injection, schedule: Q01DX009 (ip), vehicle: saline
[3] = dose: 50.0 mg/kg/injection, schedule: Q04DX003 (ip), vehicle: saline
[4] = dose: 100.0 mg/kg/injection, schedule: Q04DX003 (ip), vehicle: saline
[5] = dose: 100.0 mg/kg/injection, schedule: Q04DX003 (ip), vehicle: saline with Tween-80
[6] = dose: 200.0 mg/kg/injection, schedule: Q04DX003 (ip), vehicle: saline with Tween-80
[7] = dose: 400.0 mg/kg/injection, schedule: Q04DX003 (ip), vehicle: saline with Tween-80
[8] = dose: 100.0 mg/kg/injection, schedule: Q01DX009 (ip), vehicle: saline
[9] = dose: 200.0 mg/kg/injection, schedule: Q01DX009 (ip), vehicle: saline
[10] = dose: 200.0 mg/kg/injection, schedule: Q04DX003 (ip), vehicle: saline
[11] = dose: 400.0 mg/kg/injection, schedule: Q01DX009 (ip), vehicle: saline
[12] = dose: 400.0 mg/kg/injection, schedule: Q04DX003 (ip), vehicle: saline
[13] = dose: 100.0 mg/kg/injection, schedule: Q01DX001 (ip), vehicle: saline
[14] = dose: 200.0 mg/kg/injection, schedule: Q01DX001 (ip), vehicle: saline
[15] = dose: 400.0 mg/kg/injection, schedule: Q01DX001 (ip), vehicle: saline

Measured: T/C

C(=N\N(Cc1ccccc1)CN(Cc1ccccc1)/N=C/c1ccccc1)/c1ccccc1
inactive: dose: 100.0 mg/kg/injection, schedule: Q01DX001 (ip), vehicle: other 90 % of control | dose: 200.0 mg/kg/injection, schedule: Q01DX001 (ip), vehicle: other 94 % of control | dose: 400.0 mg/kg/injection, schedule: Q01DX001 (ip), vehicle: other 87 % of control

C=CCC(N)Cc1ccccc1 (configuration not stated)
inactive: dose: 6.25 mg/kg/injection, schedule: Q01DX009 (ip), vehicle: saline 101 % of control | dose: 12.5 mg/kg/injection, schedule: Q01DX009 (ip), vehicle: saline 113 % of control | [1] 101 % of control | dose: 25.0 mg/kg/injection, schedule: Q04DX003 (ip), vehicle: saline 96 % of control | [2] 109 % of control | [3] 105 % of control | [4] 102 % of control

CCCCCCCCCCCCCCOc1ccc(Sc2ccc([N+](=O)[O-])cc2)cc1
inactive: dose: 100.0 mg/kg/injection, schedule: Q01DX001 (ip), vehicle: Klucel (hydroxypropylcellulose) (HPC) 106 % of control | dose: 200.0 mg/kg/injection, schedule: Q01DX001 (ip), vehicle: Klucel (hydroxypropylcellulose) (HPC) 90 % of control | dose: 400.0 mg/kg/injection, schedule: Q01DX001 (ip), vehicle: Klucel (hydroxypropylcellulose) (HPC) 89 % of control

Cc1c2c(c(C)c3ccncc13)S(=O)(=O)c1ccccc1-2
inactive: dose: 75.0 mg/kg/injection, schedule: Q01DX001 (ip), vehicle: other 95 % of control | dose: 150.0 mg/kg/injection, schedule: Q01DX001 (ip), vehicle: other 93 % of control | dose: 300.0 mg/kg/injection, schedule: Q01DX001 (ip), vehicle: other 93 % of control

CC12CCC(CC1)C2C(=O)O (configuration not stated)
inactive: dose: 75.0 mg/kg/injection, schedule: Q01DX009 (ip), vehicle: saline with Tween-80 106 % of control | [5] 102 % of control | dose: 150.0 mg/kg/injection, schedule: Q01DX009 (ip), vehicle: saline with Tween-80 93 % of control | [6] 98 % of control | dose: 300.0 mg/kg/injection, schedule: Q01DX009 (ip), vehicle: saline with Tween-80 98 % of control | [7] 102 % of control

CC1(C)NC(=O)N(CCCl)C1=O
inactive: [3] 97 % of control | [8] 96 % of control | [4] 92 % of control | [9] 96 % of control | [10] 97 % of control | [11] 98 % of control | [12] 103 % of control

COC(=O)c1ccccc1N=Nc1cc(C)c(C)cc1O
inactive: dose: 100.0 mg/kg/injection, schedule: Q01DX009 (ip), vehicle: Klucel (hydroxypropylcellulose) (HPC) 88 % of control | dose: 200.0 mg/kg/injection, schedule: Q01DX009 (ip), vehicle: Klucel (hydroxypropylcellulose) (HPC) 88 % of control | dose: 400.0 mg/kg/injection, schedule: Q01DX009 (ip), vehicle: Klucel (hydroxypropylcellulose) (HPC) 91 % of control

N#C/C(=C/c1ccnc2ccccc12)c1ccccc1
inactive: dose: 100.0 mg/kg/injection, schedule: Q04DX003 (ip), vehicle: Klucel (hydroxypropylcellulose) (HPC) 101 % of control | dose: 200.0 mg/kg/injection, schedule: Q04DX003 (ip), vehicle: Klucel (hydroxypropylcellulose) (HPC) 101 % of control | dose: 400.0 mg/kg/injection, schedule: Q04DX003 (ip), vehicle: Klucel (hydroxypropylcellulose) (HPC) 95 % of control

Cc1ccc(NC(=O)C2CCC(C)(C(=O)O)C2(C)C)cc1 (configuration not stated)
inactive: dose: 50.0 mg/kg/injection, schedule: Q01DX009 (ip), vehicle: saline with Tween-80 104 % of control | dose: 100.0 mg/kg/injection, schedule: Q01DX009 (ip), vehicle: saline with Tween-80 101 % of control | dose: 200.0 mg/kg/injection, schedule: Q01DX009 (ip), vehicle: saline with Tween-80 93 % of control

S=C=NCc1ccccc1
inactive: dose: 75.0 mg/kg/injection, schedule: Q01DX001 (ip), vehicle: saline 97 % of control | dose: 150.0 mg/kg/injection, schedule: Q01DX001 (ip), vehicle: saline 105 % of control

CC(C)(C)OC(=O)NC(CC(N)=O)C(=O)ON1C(=O)CCC1=O (configuration not stated)
inactive: [1] 95 % of control | [2] 99 % of control | [8] 86 % of control | dose: 100.0 mg/kg/injection, schedule: Q04DX002 (ip), vehicle: saline 108 % of control | [9] 94 % of control and 99 % of control | dose: 200.0 mg/kg/injection, schedule: Q04DX002 (ip), vehicle: saline 86 % of control | [11] 105 % of control | dose: 400.0 mg/kg/injection, schedule: Q04DX002 (ip), vehicle: saline 105 % of control

N#CCCC(C#N)(c1cccnc1)N1CCOCC1 (configuration not stated)
inactive: dose: 6.25 mg/kg/injection, schedule: Q04DX002 (ip), vehicle: saline with Tween-80 98 % of control | dose: 12.5 mg/kg/injection, schedule: Q04DX002 (ip), vehicle: saline with Tween-80 98 % of control | dose: 25.0 mg/kg/injection, schedule: Q04DX002 (ip), vehicle: saline with Tween-80 98 % of control

CNC(=O)Nc1ncn[nH]1
inactive: dose: 75.0 mg/kg/injection, schedule: Q01DX001 (ip), vehicle: carboxymethylcellulose (CMC) 103 % of control | dose: 150.0 mg/kg/injection, schedule: Q01DX001 (ip), vehicle: carboxymethylcellulose (CMC) 98 % of control | dose: 300.0 mg/kg/injection, schedule: Q01DX001 (ip), vehicle: carboxymethylcellulose (CMC) 104 % of control

N#CCCCOc1cccc(N)c1
inactive: [13] 101 % of control | [14] 101 % of control | [15] 101 % of control

CN(CC(=O)O)CC1C(c2ccccc2)C1c1ccccc1 (configuration not stated)
inactive: dose: 100.0 mg/kg/injection, schedule: Q04DX002 (ip), vehicle: Klucel (hydroxypropylcellulose) (HPC) 100 % of control | dose: 200.0 mg/kg/injection, schedule: Q04DX002 (ip), vehicle: Klucel (hydroxypropylcellulose) (HPC) 93 % of control

COC(=O)c1c2c(c3c(c1C(=O)OC)CCC3)CCC2
inactive: [13] 98 % of control | [14] 95 % of control | [15] 92 % of control

CC(C)(C)C(=O)C(O)C(C)(C)C (configuration not stated)
inactive: [13] 95 % of control | [14] 97 % of control | [15] 93 % of control

Cc1cccc2c(N3CCOCC3)c3c(nc12)CCCCC3
inactive: [5] 96 % of control | [6] 95 % of control | [7] 101 % of control

O=[N+]([O-])/C=C/c1cccc([N+](=O)[O-])c1
inactive: dose: 25.0 mg/kg/injection, schedule: Q04DX003 (ip), vehicle: Klucel (hydroxypropylcellulose) (HPC) 103 % of control | dose: 50.0 mg/kg/injection, schedule: Q04DX003 (ip), vehicle: Klucel (hydroxypropylcellulose) (HPC) 103 % of control

NCCCC(=O)O
inactive: [13] 99 % of control | [8] 100 % of control | [4] 103 % of control | [14] 105 % of control | [9] 90 % of control | [10] 98 % of control | [15] 101 % of control | [11] 94 % of control | [12] 101 % of control

C/C=C1\CN2CCc3c([nH]c4ccccc34)C2CC1CC(=O)N(C)C (configuration not stated)
inactive: [5] 96 % of control | [6] 88 % of control

CCOC(=S)c1ccc(NS(=O)(=O)c2ccc(C)cc2)cc1
inactive: dose: 100.0 mg/kg/injection, schedule: Q01DX001 (ip), vehicle: saline with Tween-80 100 % of control | dose: 200.0 mg/kg/injection, schedule: Q01DX001 (ip), vehicle: saline with Tween-80 107 % of control | dose: 400.0 mg/kg/injection, schedule: Q01DX001 (ip), vehicle: saline with Tween-80 102 % of control

Cc1cc(C)[nH]n1
inactive: [8] 103 % of control | [9] 104 % of control | [11] 100 % of control

O=[N+]([O-])c1ccc(OCCCCCBr)c(Cl)c1
inactive: dose: 100.0 mg/kg/injection, schedule: Q04DX003 (ip), vehicle: gum acacia 102 % of control | dose: 200.0 mg/kg/injection, schedule: Q04DX003 (ip), vehicle: gum acacia 100 % of control | dose: 400.0 mg/kg/injection, schedule: Q04DX003 (ip), vehicle: gum acacia 102 % of control

Nc1nc(Nc2cccc(Cl)c2)cc(=O)[nH]1
inactive: dose: 100.0 mg/kg/injection, schedule: Q01DX Z (ip), vehicle: methylcellulose (MC) 90 % of control | dose: 200.0 mg/kg/injection, schedule: Q01DX Z (ip), vehicle: methylcellulose (MC) 99 % of control

— PubChem BioAssay AID248 (DTP/NCI, 2004)
